From patent USRE47689E1, “Compounds for treating spinal muscular atrophy” (PTC Therapeutics, Inc., priority 2011, dated 2019)
Like-named read-outs stand apart in the source and are kept apart here.

Experiments:
[1] = system: SMN2 minigene (full length SMN2 minigene mRNA containing SMN2 exon 7); test: SMN2 minigene mRNA splicing RT-qPCR assay in cultured cells; assay type: cell-based, human; conditions: Homo sapiens, HEK293-H, read-out: EC1.5x for production of full length SMN2 mRNA
Summary of the method: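 HEK293H cells stably carrying the SMN2-A minigene treated 24 h at 37° C with compound (DMSO, 200× stock), then lysed. Multiplex RT-qPCR (SMN primers 0.4 μM final; 40 cycles) measures full-length exon 7-containing minigene mRNA, normalized to GAPDH and to vehicle; EC1.5x derived and binned by stars.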

[2] = system: Smn protein; test: Smn protein assay in cultured cells (SMN HTRF); assay type: cell-based, human; conditions: 48 hours; for EC1.5x (concentration giving 1.5-fold Smn protein increase): SMA Type 1 patient fibroblast cells (GM03813), 7-point concentration curve, SMN HTRF, concentration producing 1.5 times Smn protein vs DMSO vehicle control, read-out: EC1.5x for Smn protein expression; for maximum fold (Fold) increase of Smn protein: SMA patient fibroblast cells, 7-point concentration data, fold increase relative to vehicle control (SMN HTRF)
Summary of the method: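 Lysates in RIPA with protease inhibitors are incubated overnight at room temperature with HTRF anti-SMN antibodies. EC1.5x is derived from fold increase in ΔF over vehicle.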

[3] = HEK293H cells stably transfected with SMN2-A minigene, 24 hours, 7-point concentration curve, 1.5-fold relative to vehicle-treated cells

Row | SMILES | melting point [°C] | EC (1.5-fold) [1, 3] [µM] | EC1.5x (concentration giving 1.5-fold Smn protein increase) [2] [nM] | maximum fold (Fold) increase of Smn protein [2] | EC (1.5-fold) ([1]; 24 h) [µM]
1 | C[C@@H]1CN(c2ccc3cc(-c4cc5ccccn5c4)c(=O)oc3c2)C[C@H](C)N1 [Compound 553, 7-[(3R,5S)-3,5-dimethylpiperazin-1-yl]-3-(indolizin-2-yl)-2H-chromen-2-one] | 164 to 167 | 0.3 to 1 |  | * (maximum fold increase of ≤1.2) | 
2 | Cc1cn2cc(-c3cc4ccc(N5CCN6CCCCC6C5)cc4oc3=O)nc2c(C)n1 (stereo not drawn) [Compound 633, 3-(6,8-dimethylimidazo[1,2-a]pyrazin-2-yl)-7-(octahydro-2H-pyrido[1,2-a]pyrazin-2-yl)-2H-chromen-2-one] | 225 to 227 | < 0.1 |  | *** (fold increase between >1.35 and ≤1.5) | 
3 | Cc1cn2cc(-c3cc4ccc(NC5C[C@H]6CCC[C@@H](C5)N6C)cc4oc3=O)cc2c(C)n1 (stereo partly drawn) [Compound 728, 3-(1,3-dimethylpyrrolo[1,2-a]pyrazin-7-yl)-7-{[(1R,5S)-9-methyl-9-azabicyclo[3.3.1]non-3-yl]amino}-2H-chromen-2-one] | 235 to 238 |  |  | * (maximum fold increase of ≤1.2) | 0.3 to 1
4 | Cc1cn2cc(-c3cc4ccc(N5C[C@H]6CCCN(C)[C@H]6C5)cc4oc3=O)nc2c(C)n1 [Compound 658, 3-(6,8-dimethylimidazo[1,2-a]pyrazin-2-yl)-7-[(4aR,7aR)-1-methyloctahydro-6H-pyrrolo[3,4-b]pyridin-6-yl]-2H-chromen-2-one] | 232 | < 0.1 | < 300 | ***** (fold increase >1.65) | 
5 | C[C@@H]1CN(c2ccc3cc(-c4ccc5c(c4)OCO5)c(=O)oc3c2)C[C@H](C)N1 [Compound 487, 3-(1,3-benzodioxol-5-yl)-7-[(3R,5S)-3,5-dimethylpiperazin-1-yl]-2H-chromen-2-one] | 123 to 125 | 3 to 30 |  | * (maximum fold increase of ≤1.2) | 

Continued, in another order:

Row | melting point [°C] | SMILES | EC (1.5-fold) [1, 3] [µM] | EC1.5x (concentration giving 1.5-fold Smn protein increase) [2] [nM] | maximum fold (Fold) increase of Smn protein [2] | EC (1.5-fold) ([1]; 24 h) [µM]
6 | 212 to 214 | Cc1cn2cc(-c3cc4ccc(N5CCN(C)CC5)cc4oc3=O)cc2cn1 [Compound 590, 7-(4-methylpiperazin-1-yl)-3-(3-methylpyrrolo[1,2-a]pyrazin-7-yl)-2H-chromen-2-one] | < 0.1 | < 300 | ***** (fold increase >1.65) | 
7 | 231 to 236 | COc1cccc(-c2cc3c(F)cc(N4CCNCC4)cc3oc2=O)n1 [Compound 468, 5-fluoro-3-(6-methoxypyridin-2-yl)-7-(piperazin-1-yl)-2H-chromen-2-one] | 0.3 to 1 |  | ** (fold increase between >1.2 and ≤1.35) | 
8 | 215 to 217 | Cc1nc2ccc(-c3cc4ccc(N5CCN(C)CC5)cc4oc3=O)cc2s1 [Cpd 769, 3-(2-methyl-1,3-benzothiazol-6-yl)-7-(4-methylpiperazin-1-yl)-2H-chromen-2-one] | 0.3 to 1 |  | ** (fold increase between >1.2 and ≤1.35) | 
9 | 250 to 255 | Cc1cc(F)c2nc(-c3cc4ccc(N5CCN[C@@H](C)C5)cc4oc3=O)cn2c1 [Cpd 421, 3-(8-fluoro-6-methylimidazo[1,2-a]pyridin-2-yl)-7-[(3S)-3-methylpiperazin-1-yl]-2H-chromen-2-one] | < 0.1 | < 300 | *** (fold increase between >1.35 and ≤1.5) | 
10 | 172 to 176 | CCc1cc(C)cn2cc(-c3cc4ccc(N5CCCN(C)CC5)cc4oc3=O)nc12 [Compound 332, 3-(8-ethyl-6-methylimidazo[1,2-a]pyridin-2-yl)-7-(4-methyl-1,4-diazepan-1-yl)-2H-chromen-2-one] | 0.3 to 1 |  | * (maximum fold increase of ≤1.2) | 
